Measurements taken from ChEMBL document CHEMBL1770076, “(+)-Arisugacin A--computational evidence of a dual binding site covalent inhibitor of acetylcholinesterase” (Bioorg Med Chem Lett, 2011).

Tests used:
[1] = biological target: Cholinesterase (Homo sapiens, UniProt P06276)
[2] = biological target: Acetylcholinesterase (Homo sapiens, UniProt P22303)
Sequence of Acetylcholinesterase (P22303 whole entry): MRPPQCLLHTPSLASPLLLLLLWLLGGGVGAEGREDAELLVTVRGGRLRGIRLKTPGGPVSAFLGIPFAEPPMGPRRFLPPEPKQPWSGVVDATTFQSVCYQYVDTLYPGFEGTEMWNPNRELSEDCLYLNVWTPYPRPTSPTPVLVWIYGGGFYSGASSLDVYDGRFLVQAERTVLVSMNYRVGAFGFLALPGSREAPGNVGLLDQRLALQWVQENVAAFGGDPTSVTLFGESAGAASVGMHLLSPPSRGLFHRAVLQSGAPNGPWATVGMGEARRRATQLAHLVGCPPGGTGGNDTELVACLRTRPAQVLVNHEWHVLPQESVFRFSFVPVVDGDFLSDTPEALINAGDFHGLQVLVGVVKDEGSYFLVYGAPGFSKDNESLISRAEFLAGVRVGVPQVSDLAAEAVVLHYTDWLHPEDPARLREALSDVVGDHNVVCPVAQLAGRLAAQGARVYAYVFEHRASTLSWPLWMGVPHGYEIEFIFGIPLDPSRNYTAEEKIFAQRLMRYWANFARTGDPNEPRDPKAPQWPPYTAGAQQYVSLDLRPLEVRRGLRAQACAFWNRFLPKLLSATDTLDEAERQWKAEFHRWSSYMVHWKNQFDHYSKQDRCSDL
Description: Inhibition of AChE-induced amyloid beta aggregation

Sequence of Cholinesterase (P06276 whole entry): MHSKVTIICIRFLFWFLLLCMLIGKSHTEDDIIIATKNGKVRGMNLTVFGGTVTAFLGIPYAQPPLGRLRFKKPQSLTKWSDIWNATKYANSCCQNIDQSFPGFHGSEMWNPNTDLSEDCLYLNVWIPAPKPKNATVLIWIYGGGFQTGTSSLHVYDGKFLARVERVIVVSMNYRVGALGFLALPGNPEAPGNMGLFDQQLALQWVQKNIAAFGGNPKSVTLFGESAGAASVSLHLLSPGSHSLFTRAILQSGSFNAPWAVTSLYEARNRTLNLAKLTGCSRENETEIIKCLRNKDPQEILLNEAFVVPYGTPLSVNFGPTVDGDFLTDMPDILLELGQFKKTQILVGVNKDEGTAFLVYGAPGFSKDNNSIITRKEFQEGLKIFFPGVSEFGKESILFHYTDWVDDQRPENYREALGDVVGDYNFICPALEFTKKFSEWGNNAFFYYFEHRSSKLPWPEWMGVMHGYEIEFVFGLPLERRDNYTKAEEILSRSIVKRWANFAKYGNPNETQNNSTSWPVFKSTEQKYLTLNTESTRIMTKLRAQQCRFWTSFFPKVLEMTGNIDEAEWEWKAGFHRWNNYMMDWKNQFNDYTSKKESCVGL

COc1ccc(-c2cc3c(c(=O)o2)C[C@]2(O)[C@@]4(C)C(=O)C=CC(C)(C)[C@]4(O)CC[C@@]2(C)O3)cc1OC
IC50 [1]: 18000 nM

C/C=C1\[C@H]2C=C(C)C[C@]1(N)c1ccc(=O)[nH]c1C2 [HUPERZINE A]
IC50 [1]: 100 nM

COc1cc(-c2cc3c(c(=O)o2)C[C@]2(O)[C@@]4(C)C(=O)C=CC(C)(C)[C@]4(O)CC[C@@]2(C)O3)cc(OC)c1OC [TERRITREM B]
IC50 [2]: 6 nM
